Laboratory results from patent US10532054B2, “Compounds for the prevention and treatment of cardiovascular diseases” (Resverlogix Corp., priority 2007, dated 2020).
Counter-ions that a name gives are not always drawn.

Row | SMILES | melting point
1 | COc1cc(OC)c2c(=O)[nH]c(-c3cc(C)c(O)c(C)c3)cc2n1 (as salt: HCl) [Example 16, 7-(4-hydroxy-3,5-dimethylphenyl)-2,4-dimethoxy-1,6-naphthyridin-5(6H)-one] | > 324 °C
2 | COc1cc(OC)c2c(=O)[nH]c(-c3cc(C)c(OCCN(C)C)c(C)c3)cc2c1 (as salt: hydrochloride) [Example 10, 3-(4-(2-(dimethylamino)ethoxy)-3,5-dimethylphenyl)-6,8-dimethoxyisoquinolin-1(2H)-one] | 261 to 263 °C
3 | COc1cc(OC)c2cnc(-c3cc(C)c(O)c(C)c3)cc2c1 (as salt: hydrochloride) [Example 18, 4-(6,8-dimethoxyisoquinolin-3-yl)-2,6-dimethylphenol] | 255 to 256 °C
4 | COc1cc(OC)c2c(=O)[nH]c(-c3cc(C)c(OCCN4CCN(C)CC4)c(C)c3)cc2c1 (as salt: hydrochloride) [Example 23] | 195 to 198 °C
5 | COc1cc(OC)c2c(=O)[nH]c(-c3cccnc3)nc2c1 (as salt: hydrochloride) [Example 27, 5,7-dimethoxy-2-(pyridin-3-yl)quinazolin-4(3H)-one] | 257 to 259 °C
6 | COc1cc(OC)c2c(=O)[nH]c(-c3ccc(CN4CCN(C)CC4)cc3)nc2c1 (as salt: hydrochloride) [Example 59, 5,7-dimethoxy-2-(4((4-methylpiperazin-1-yl)methyl)phenyl)quinazolin-4(3H)-one] | 275 to 277 °C
7 | Cc1cc(-c2nc3ccc(CN4CCOCC4)cc3c(=O)[nH]2)cc(C)c1O (as salt: hydrochloride) [Example 62, 2-(4-hydroxy-3,5-dimethylphenyl)-6-(morpholinomethyl)quinazolin-4(3H)-one] | 284 to 286 °C
8 | COc1cc(OC)c2c(=O)[nH]c(-c3ccc(CN4CCOCC4)cc3)nc2c1 (as salt: hydrochloride) [Example 66, 5,7-dimethoxy-2-(4-(morpholinomethyl)phenyl)quinazolin-4(3H)-one] | 206 to 208 °C (dec.)
9 | CCN1CCN(Cc2ccc(-c3nc4cc(OC)cc(OC)c4c(=O)[nH]3)cc2)CC1 (as salt: hydrochloride) [Example 67, 2-(4((4-ethylpiperazin-1-yl)methyl)phenyl)-5,7-dimethoxyquinazolin-4(3H)-one] | 278 to 280 °C (dec.)
10 | O=c1[nH]c(-c2ccc(O)cc2)cc2ccccc12 [Example 1, 3-(4-Hydroxyphenyl)-2H-isoquinolin-1-one] | 239 to 241 °C
11 | Oc1ccc(-c2cc3ccccc3cn2)cc1 [Example 2, 4-lsoquinolin-3-yl-phenol] | 218 to 219 °C
12 | Oc1ccc(-c2cc3ncccc3cn2)cc1 [Example 5, 4-(1,6-naphthyridin-7-yl)phenol] | 219 to 221 °C
13 | COc1cc(OC)c2c(=O)[nH]c(-c3ccc(O)cc3)cc2c1 [Example 6, 3-(4-hvdroxyphenyl)-6,8-dimethoxyisoquinolin-1(2H)-one] | 245 to 247 °C
14 | COc1cc(OC)c2c(=O)[nH]c(-c3ccc(O)c(OC)c3)nc2c1 [Example 31, 2-(4-hydroxy-3-methoxyphenyl)-5,7-dimethoxyquinazolin-4(3H)-one] | 294 to 296 °C
15 | Cc1cc(-c2nc3ccccc3c(=O)[nH]2)cc(C)c1OCCO [Example 35, 2-(4-(2-hydroxyethoxy)-3,5-dimethylphenyl)quinazolin-4(3H)-one] | 260 to 261 °C
16 | COc1cc(OC)c2c(=O)[nH]c(-c3ccc(N(C)C)c4ccccc34)nc2c1 [Example 37, 2-(4-(dimethylamino)naphthalen-1-yl)-5,7-dimethoxyquinazolin-4(3H)-one] | 269 to 271 °C
17 | COc1cc(OC)c2c(=O)[nH]c(-c3ccc(OCC(N)=O)cc3)nc2c1 [Example 38, 2-(4-(5,7-dimethoxy-4-oxo-3,4-dihydroquinazolin-2-yl)phenoxy)acetamide] | 309 to 311 °C
18 | O=C(O)COc1ccc(-c2nc3ccccc3c(=O)[nH]2)cc1 [Example 39, 2-(4-(4-oxo-3,4-dihydroquinazolin-2-yl)phenoxy)acetic acid] | 285 to 287 °C
19 | CN(C)c1ccc(-c2nc3ccccc3c(=O)[nH]2)c2ccccc12 [Example 40, 2-(4-(dimethylamino)naphthalen-1-yl)quinazolin-4(3H)-one] | 224 to 226 °C
20 | NC(=O)COc1ccc(-c2nc3ccccc3c(=O)[nH]2)cc1 [Example 41, 2-(4-(4-oxo-3,4-dihydroquinazolin-2-yl)phenoxy)acetamide] | 277.5 to 278.5 °C
21 | COc1cc(OC)c2c(=O)[nH]c(-c3ccc4c(c3)OCCO4)nc2c1 [Example 42, 2-(2,3-dihydrobenzo[b][1,4]dioxin-6-yl)-5,7-dimethoxyquinazolin-4(3H)-one] | 307.5 to 309.6 °C
22 | COc1cc2nc(-c3ccc(N(CCO)CCO)cc3)[nH]c(=O)c2cc1OC [Example 47, 2-(4-(bis(2-hydroxyethyl)amino)phenyl)-6,7-dimethoxyquinazolin-4(3H)-one] | 268 to 270 °C

Continued, values first:

Row | melting point | SMILES
23 | > 350 °C | Cc1cc(-c2cc3ncccc3c(=O)[nH]2)cc(C)c1O (as salt: HCl) [Example 8, 7-(4-hydroxy-3,5-dimethylphenyl)-1,6-naphthyridin-5(6H)-one]
24 | 239 to 240 °C | COc1cc(OC)c2cnc(-c3cc(C)c(OCCN4CCOCC4)c(C)c3)cc2c1 (as salt: HCl) [Example 22, 4-(2-(4-(6,8-dimethoxyisoquinolin-3-yl)-2,6-dimethylphenoxy)ethyl)morpholine]
25 | 281 to 283 °C | Cc1cc(-c2cc3ccc(CN4CCOCC4)cc3c(=O)[nH]2)cc(C)c1O (as salt: hydrochloride) [Example 11, 3-(4-hydroxy-3,5-dimethylphenyl)-7-(morpholinomethyl)isoquinolin-1(2H)-one]
26 | > 330 °C | COc1cc(O)nc2cc(-c3cc(C)c(O)c(C)c3)[nH]c(=O)c12 (as salt: hydrochloride) [Example 12, 2-hydroxy-7-(4-hydroxy-3,5-dimethylphenyl)-4-methoxy-1,6-naphthyridin-5(6H)-one]
27 | 185 to 187 °C | COc1cc(OC)c2c(=O)[nH]c(-c3cc(C)c(OCCN4CCOCC4)c(C)c3)nc2c1 (as salt: hydrochloride) [Example 21, 2-(3,5-dimethyl-4-(2-morpholinoethoxy)phenyl)-5,7-dimethoxyquinazolin-4(3H)-one]
28 | 215 to 217 °C | COc1cc(OC)c2c(=O)[nH]c(-c3ccccn3)nc2c1 (as salt: hydrochloride) [Example 26, 5,7-dimethoxy-2-(pyridin-2-yl)quinazolin-4(3H)-one]
29 | 294 to 295 °C | COc1cc(OC)c2c(=O)[nH]c(-c3ccncc3)nc2c1 (as salt: hydrochloride) [Example 33, 5,7-dimethoxy-2-(pyridin-4-yl)quinazolin-4(3H)-one]
30 | 300 to 302 °C | Cc1cc(-c2nc3ccccc3c(=O)[nH]2)cc(C)c1OCCN1CCOCC1 (as salt: hydrochloride) [Example 34, 2-(3,5-dimethyl-4-(2-morpholinoethoxy)phenyl)quinazolin-4(3H)-one]
31 | 253 to 254 °C | COc1cc(OC)c2c(=O)n(C)c(-c3cc(C)c(O)c(C)c3)cc2c1 [Example 7, 3-(4-hydroxy-3,5-dimethylphenyl)-6,8-dimethoxy-2-methylisoquinolin-1(2H)-one]
32 | 252 to 254 °C | COc1cc(OC)c2c(=O)[nH]c(-c3cc(C)c(OCC(C)(C)O)c(C)c3)cc2c1 [Example 14, 3-(4-(2-hydroxy-2-methylpropoxy)-3,5-dimethylphenyl)-6,8-dimethoxyisoquinolin-1(2H)-one]
33 | 246.6 to 247.4 °C | COc1cc2c(c(OC)c1)S(=O)(=O)NC(c1cc(C)c(O)c(C)c1)=C2 [Example 15, 6,8-dimethoxy-3-(4-hydroxy-3,5-dimethylphenyl)-2H-1,2-benzothiazine-1,1-dioxide]
34 | 246 to 248 °C | COc1cc2cc(-c3cc(C)c(O)c(C)c3)n(C)c(=O)c2c(OC)c1C [Example 17, 3-(4-hydroxy-3,5-dimethylphenyl)-6,8-dimethoxy-2,7-dimethylisoquinolin-1(2H)-one]
35 | 229.7 to 230.5 °C | COc1cc(OC)c2c(=O)[nH]c(-c3cc(C(C)(C)C)c(O)c(C(C)(C)C)c3)nc2c1 [Example 28, 2-(3,5-di-tert-butyl-4-hydroxyphenyl)-5,7-dimethoxyquinazolin-4(3H)-one]
36 | 270 to 272 °C | COc1cc(OC)cc(-c2nc3cc(OC)cc(OC)c3c(=O)[nH]2)c1 [Example 29, 2-(3,5-dimethoxyphenyl)-5,7-dimethoxyquinazolin-4(3H)-one]
37 | 276 to 277 °C | COc1ccc(-c2nc3cc(OC)cc(OC)c3c(=O)[nH]2)cc1 [Example 30, 5,7-dimethoxy-2-(4-methoxyphenyl)quinazolin-4(3H)-one]
38 | 279 to 281 °C | COc1cc(OC)c2c(=O)[nH]c(-c3ccc(O)c(Cl)c3)nc2c1 [Example 32, 2-(3-chloro-4-hydroxyphenyl)-5,7-dimethoxyquinazolin-4(3H)-one]
39 | 267 to 268 °C (dec.) | O=c1[nH]c(-c2ccc3c(c2)OCCO3)nc2ccccc12 [Example 36, 2-(2,3-dihydrobenzo[b][1,4]dioxin-6-yl)quinazolin-4(3H)-one]
40 | 235.5 to 236.5 °C | COc1cc2nc(-c3ccc(N(C)C)c4ccccc34)[nH]c(=O)c2cc1OC [Example 44]
41 | 228 to 230 °C | O=c1[nH]c(-c2ccc(N(CCO)CCO)cc2)nc2ccccc12 [Example 45, 2-(4-(bis(2-hydroxyethyl)amino)phenyl)quinazolin-4(3H)-one]
42 | 249 to 251 °C | COc1cc(OC)c2c(=O)[nH]c(-c3ccc(N(CCO)CCO)cc3)nc2c1 [Example 46, 2-(4-(bis(2-hydroxyethyl)amino)phenyl)-5,7-dimethoxyquinazolin-4(3H)-one]
43 | 316.4 to 318.2 °C | COc1cc2nc(-c3ccc4c(c3)OCCO4)[nH]c(=O)c2cc1OC [Example 48, 2-(2,3-dihydrobenzo[b][1,4]dioxin-6-yl)-6,7-dimethoxyquinazolin-4(3H)-one]
